Results on two compounds are retold here after patent publication US6362173B1, “Methods for treating psychosis associated with cocaine addiction with glucocorticoid receptor antagonists” (The Board of Trustees of the Leland Stanford Junior …, priority 1997, dated 2002).

In data set [1] the test system is patients with chronic severe depression. The note with it: about 2.5 to 4.4 mg/kg per day, up to eight weeks; four patients; cited from earlier work.
For data set [2] the following is noted: one study; cited from earlier work.
In a further data set the target is T1, progesterone receptor (Homo sapiens, UniProt P06401).
T1 sequence (P06401 1-933): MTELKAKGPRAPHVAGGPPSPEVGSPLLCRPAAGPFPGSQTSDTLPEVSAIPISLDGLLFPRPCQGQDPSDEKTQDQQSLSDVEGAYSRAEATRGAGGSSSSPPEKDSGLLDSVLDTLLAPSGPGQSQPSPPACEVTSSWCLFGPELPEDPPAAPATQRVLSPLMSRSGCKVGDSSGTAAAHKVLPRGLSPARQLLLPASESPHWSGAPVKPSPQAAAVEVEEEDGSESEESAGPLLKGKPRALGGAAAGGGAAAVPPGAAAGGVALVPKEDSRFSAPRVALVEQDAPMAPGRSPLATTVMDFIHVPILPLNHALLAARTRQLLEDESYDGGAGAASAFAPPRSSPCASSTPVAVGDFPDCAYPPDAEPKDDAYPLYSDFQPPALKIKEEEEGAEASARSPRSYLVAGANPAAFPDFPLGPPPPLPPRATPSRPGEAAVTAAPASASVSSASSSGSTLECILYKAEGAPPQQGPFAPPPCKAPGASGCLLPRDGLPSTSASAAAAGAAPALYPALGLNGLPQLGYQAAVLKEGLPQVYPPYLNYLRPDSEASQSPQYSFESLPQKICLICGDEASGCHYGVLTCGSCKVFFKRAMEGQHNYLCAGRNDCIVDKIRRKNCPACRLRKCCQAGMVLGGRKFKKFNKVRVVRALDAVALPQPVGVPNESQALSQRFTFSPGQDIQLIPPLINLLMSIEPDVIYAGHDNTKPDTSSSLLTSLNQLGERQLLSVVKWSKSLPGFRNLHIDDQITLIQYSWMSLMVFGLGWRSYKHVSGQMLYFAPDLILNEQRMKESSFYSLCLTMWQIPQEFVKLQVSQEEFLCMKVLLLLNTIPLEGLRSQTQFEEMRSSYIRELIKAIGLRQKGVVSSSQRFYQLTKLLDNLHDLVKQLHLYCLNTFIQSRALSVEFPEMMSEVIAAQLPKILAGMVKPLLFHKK
The note with it: cited from earlier work.

For data set [3], the system named is patients with severe Cushing Syndrome. The note with it: 400 to 800 mg per day; adrenal cancers and ectopic ACTH secretion from lung cancer; cited from earlier work.
In data set [4] the target is T2, glucocorticoid (GR) receptor (Homo sapiens, UniProt P04150).
T2 sequence (P04150 1-777): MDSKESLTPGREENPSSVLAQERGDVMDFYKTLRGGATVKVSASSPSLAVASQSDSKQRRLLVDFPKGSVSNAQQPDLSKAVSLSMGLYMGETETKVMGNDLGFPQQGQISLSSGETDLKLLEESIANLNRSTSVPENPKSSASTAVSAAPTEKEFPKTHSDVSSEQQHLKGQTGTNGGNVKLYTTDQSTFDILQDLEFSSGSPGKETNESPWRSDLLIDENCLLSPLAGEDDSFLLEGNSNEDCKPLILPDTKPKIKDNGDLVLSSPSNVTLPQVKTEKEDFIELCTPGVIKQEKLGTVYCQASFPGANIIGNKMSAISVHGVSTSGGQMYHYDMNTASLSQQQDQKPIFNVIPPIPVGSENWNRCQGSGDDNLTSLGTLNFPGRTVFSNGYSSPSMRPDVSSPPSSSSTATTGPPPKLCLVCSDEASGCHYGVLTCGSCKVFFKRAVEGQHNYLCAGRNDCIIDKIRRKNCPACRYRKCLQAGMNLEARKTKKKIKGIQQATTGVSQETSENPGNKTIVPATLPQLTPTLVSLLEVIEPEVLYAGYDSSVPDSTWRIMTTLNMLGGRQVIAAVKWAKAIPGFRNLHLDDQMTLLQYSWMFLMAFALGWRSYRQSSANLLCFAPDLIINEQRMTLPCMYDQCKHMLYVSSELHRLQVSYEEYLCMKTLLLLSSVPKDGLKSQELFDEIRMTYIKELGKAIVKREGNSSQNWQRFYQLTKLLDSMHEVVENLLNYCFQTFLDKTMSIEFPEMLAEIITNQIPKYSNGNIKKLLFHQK
The note with it: cited from earlier work.

For data set [5], the system named is patients with psychotic major depression. Description: Double-blind placebo-controlled cross-over study of mifepristone in psychotic major depression. In kind it is in vivo, human. The text has this: The study requires a nine day, closely observed hospital stay. Individuals included in this study were diagnosed as psychotic depressives using criteria as set forth by the DSM-IV, as described above. This diagnosis was confirmed by two psychiatrists. All are between the ages of 18 and 75. Apart from hypercortisolemia, they have no major medical problems. They have no signs of Cushings Syndrome. No […] of childbearing potential are included in the study. Individuals admitting to having used illicit drugs within a month prior to admission for the study are excluded. Individuals admitting to drinking in excess of two ounces of alcohol daily are excluded from the study. No anti-psychotic medication was taken within three days of entering the study. While, concurrent anti-depressant was not a criteria used to excluded anyone from the study, no individual was started on an anti-depressant medication while participating in the study. All patients gave their written consent to a protocol approved by the Human Subjects Committee at Stanford University Medical Center. All participants were given the Hamilton Rating Scale for Depression (HAM-D, Hamilton (1962) J. Neurol. Psychiatry, supra, discussed above) and the Structured Clinical Interview for DSM-IV Axis I mood disorders tests (as described above). Only individuals with a score greater than 21 on the HAM-D test continued in the study (a HAM-D score of >21 indicates moderate to severe depression). […] Formal psychiatric assessment, including the HAM-D rating scale (Overall (1962) supra; Kaplan (1995), supra, discussed above), the Brief Psychiatric Rating Scale (BPRS) (Overall (1962) supra; Kaplan (1995), supra, discussed above) and the […] (GAF) evaluation (DSM-IV, supra, pages 30 to 31; Kaplan, ed. (1995), supra) was carried out on days one, three, five, seven and nine of the study at 10:00 AM (at 1000 hours). A paragraph recall test (see below) was given at 11:30 AM (at 1130 hours) on days one, five and nine. Cortisol levels were measured serially every half hour from […] to 4:00 PM (1300 to 1600 hours) on days one, five and nine. Plasma ACTH and Plasma HVA was measured serially every hour from 1300 to 1600 on days one, five and nine. Routine biological and hematological studies were conducted daily, particularly to screen for evidence of relative adrenal insufficiency, i.e., hypoglycemia, eosinophilia. One means used to assess/measure improvement, or amelioration of psychosis in the study was the “Wallach Recognition Test” (a paragraph recall test). Newly evaluated individuals with an initial diagnosis of psychotic major depression, diagnosed as described above, were given a recognition task adapted from Wallach (1980) supra. Subjects listened to a taped recording of a sixteen-word list presented at the rate of one word every ten seconds. The-subject repeats each of the sixteen words and is asked to think of what the words mean to them. Following the presentation of the list, the subject engages in a twenty minute motor distraction task. The subject then listens to a fifty-word list containing the sixteen original target words plus thirty-four background distraction words. The subject then is asked to discern between target words and distractors. Sixteen newly admitted patients with an admitting diagnosis of psychotic major depression confirmed by two psychiatrists were enrolled in the study. Each patient conformed with all of the above described criteria. […] In the patients administered mifepristone, three two hundred milligram tablets per day were given for four days. […] The tablets were manufactured by Shanghai HuaLian Pharmaceuticals Co., Ltd., Shanghai, China (currently the sole commercial source of RU486). Both patients and the investigators are “blind” as to which compound (test mifepristone or placebo) the patient received.

`CC#C[C@]1(O)CC[C@H]2[C@@H]3CCC4=CC(=O)CCC4=C3[C@@H](c3ccc(N(C)C)cc3)C[C@@]21C` [mifepristone, 17-beta-hydroxy-11-beta-(4-dimethyl-aminophenyl)-17-alpha-(1-propynyl)-estra-4,9-dien-3-one]: in data set [1], the response to treatment result is recorded as “responded to treatment”. Also, the “fraction of the daily dose excreted in the urine” value in data set [2] is given as “less than 0.5%”. For the same compound, the “progesterone receptor antagonist activity” value on progesterone receptor is on record as “powerful antagonist”. The “effect on acute psychosis” value in data set [3] is given as “useful in rapidly reversing acute psychosis”. The GR antagonist activity entry in data set [4] is “powerful antagonist”. The “adverse effects reported by patient or observed by raters or staff” value in data set [5] (600 mg per day orally, four days) is reported as “no adverse effects”. The psychiatric condition result in data set [5] (600 mg per day orally, four days, three patients completed, blind not broken) is reported as “significant improvement”. Besides, the “Wallach Recognition Test: amelioration of psychosis” value in data set [5] (all individuals who received mifepristone) is listed as “showed an amelioration of their psychosis”. The “HAM-D score after treatment” value in data set [5] (average, score after decline) is “about 13.5”. Further, the “HAM-D score before treatment” value in data set [5] (average, starting score) is reported as “about 26”. Moreover, the “Brief Psychiatric Rating Scale (BPRS) score after treatment” value in data set [5] (score after decline) was “about 29.5”. In addition, the “Clinical Global Impression (CGI scale) score after treatment” value in data set [5] (score after drop, mildly depressed) was “about 3”. In addition, in data set [5] (starting score), the “Brief Psychiatric Rating Scale (BPRS) score before treatment” value is given as “about 40.5”. Moreover, the “Clinical Global Impression (CGI scale) score before treatment” value in data set [5] (starting score, indicating markedly depressed) was “about 5”.

As for `CC#C[C@]1(O)CC[C@H]2[C@@H]3CCC4=CC(=O)CCC4=C3[C@@H](c3ccc(OCCN(C)C)cc3)C[C@@]21C` [RU009, 11-beta-(4 dimethyl-amninoethoxyphenyl)-17-alpha-(propynyl-17beta-hydroxy-4,9-estradien-3-one)], the GR antagonist activity result in data set [4] is given as “GR antagonist effects”.
